Reference: the NIST ThermoML archive (doi:10.1016/j.jct.2018.02.025)
“And” between values parts separate entries of the source, which are not always exact repeats. Equal entries are not always repeated.

Settings: Transpiration method

c1ccc(-c2ccccc2)cc1 [biphenyl]
Settings | vapor or sublimation pressure
295.4 K, Crystal | 0.00091 kPa
298.2 K, Crystal | 0.00126 kPa
303.3 K, Crystal | 0.00236 kPa
308.2 K, Crystal | 0.00383 kPa
313.2 K, Crystal | 0.00653 kPa
315.4 K, Crystal | 0.00777 kPa
318.3 K, Crystal | 0.01045 kPa
323.5 K, Crystal | 0.01637 kPa
325.8 K, Crystal | 0.02135 kPa
328.4 K, Crystal | 0.02749 kPa
331.3 K, Crystal | 0.03389 kPa
333.4 K, Crystal | 0.0404 kPa
335.8 K, Crystal | 0.04928 kPa
338.4 K, Crystal | 0.06189 kPa
345.7 K, Liquid | 0.1041 kPa
347.7 K, Liquid | 0.1176 kPa
348.3 K, Liquid | 0.1226 kPa
350.4 K, Liquid | 0.1376 kPa
353.3 K, Liquid | 0.1597 kPa
358.3 K, Liquid | 0.2153 kPa
363.3 K, Liquid | 0.2837 kPa
368.2 K, Liquid | 0.3498 kPa and 0.3659 kPa
373.1 K, Liquid | 0.4791 kPa
375.4 K, Liquid | 0.5425 kPa
376.2 K, Liquid | 0.5682 kPa
